Measurements reported in paper PMC10043937, “Pyranonaphthoquinones and Naphthoquinones from the Stem Bark of Ventilago harmandiana and Their Anti-HIV-1 Activity” (Journal of Natural Products, 2023).

`COc1c(C)c2c(c(O)c1OC)C(=O)[C@@H]1[C@@H](C)O[C@@H](C)C[C@H]1C2=O` [Compound 3, (1R,3S,4aR,10aS)-7,8-Dimethoxy-9-hydroxy-1,3,6-trimethyl-3,4,4a,10a-tetrahydro-1H-naphtho[2,3-c]pyran-5,10-dione] gave a melting point of 116 to 117 °C.
`COC1=C(OC)C(=O)c2c(cc(C)c(C(C)=O)c2O)C1=O` [Compound 6, 7-Acetyl-2,3-dimethoxy-8-hydroxy-6-methylnaphthalene-1,4-dione] showed a melting point of 146 to 147 °C.
